Laboratory results as given in patent publication US20150218212A1, “FLUORINATED EPOXYKETONE-BASED TETRAPEPTIDE COMPOUNDS AND USES THEREOF AS PROTEASOME INHIBITORS” (FLUORINOV PHARMA INC., priority 2012, published 2015).

Legend:
HT29 = assay: NCI screening panel, HT29 (Colon Cancer); type: cell-based, human
Experimental: (§1) Representative compounds of Formula I were screened using the National Cancer Institute (NCI) screening panel, which consists of a panel of human tumor cell lines, representing leukemia, melanoma, and cancers of the lung, colon, ovary, breast, prostate and renal system.
(§2) After 24 h, two plates of each cell line are fixed in situ with TCA, to represent a measurement of the cell population for each cell line at the time of drug addition (Tz). Experimental drugs are solubilised in dimethyl sulfoxide at 400-fold the desired final maximum test concentration and stored frozen prior to use. At the time of drug addition, an aliquot of frozen concentrate is thawed and diluted to twice the desired final maximum test concentration with complete medium containing 50 μg/mL gentamicin. Additional four, 10-fold or ½ log serial dilutions are made to provide a total of five drug concentrations plus control. Aliquots of 100 μl of these different drug dilutions are added to the appropriate microtiter wells already containing 100 μl of medium, resulting in the required final drug concentrations.
(§3) Following drug addition, the plates are incubated for an additional 48 h at 37° C., 5% CO2, 95% air, and 100% relative humidity. For adherent cells, the assay is terminated by the addition of cold TCA (trichloroacetic acid). Cells are fixed in situ by the gentle addition of 50 μl of cold 50% (w/v) TCA (final concentration, 10% TCA) and incubated for 60 minutes at 4° C. The supernatant is discarded, and the plates are washed five times with tap water and air dried. Sulforhodamine B (SRB) solution (100 μl) at 0.4% (w/v) in 1% acetic acid is added to each well, and plates are incubated for 10 minutes at room temperature. After staining, unbound dye is removed by washing five times with 1% acetic acid and the plates are air dried. Bound stain is subsequently solubilised with 10 mM trizma base, and the absorbance is read on an automated plate reader at a wavelength of 515 nm. For suspension cells, the methodology is the same except that the assay is terminated by fixing settled cells at the bottom of the wells by gently adding 50 μl of 80% TCA (final concentration, 16% TCA). Using the seven absorbance measurements [time zero, (Tz), control growth, (C), and test growth in the presence of drug at the five concentration levels (Ti)], the percentage growth is calculated at each of the drug concentrations levels. Percentage growth inhibition is calculated as: [(Ti−Tz)/(C−Tz)]×100 for concentrations for which Ti>/=Tz and [(Ti−Tz)/Tz]×100 for concentrations for which Ti<Tz.
(§4) Three dose response parameters are calculated for each experimental agent. Growth inhibition of 50% (GI50) is calculated from [(Ti−Tz)/(C−Tz)]×100=50, which is the drug concentration resulting in a 50% reduction in the net protein increase (as measured by SRB staining) in control cells during the drug incubation. The drug concentration resulting in total growth inhibition (TGI) is calculated from Ti=Tz. The LC50 (concentration of drug resulting in a 50% reduction in the measured protein at the end of the drug treatment as compared to that at the beginning) indicating a net loss of cells following treatment is calculated from [(Ti−Tz)/Tz]×100=−50. Values are calculated for each of these three parameters if the level of activity is reached. However, if the effect is not reached or is exceeded, the value for that parameter is expressed as greater or less than the maximum or minimum concentration tested.

KMS-11 = assay: Cell viability (MTS) assay, KMS-11; type: cell-based; settings: Homo sapiens; KMS-11, MTS, 72 hours, mean ± standard deviation
Experimental: Human multiple myeloma cell lines 8226, H929, JJN3, KMH11, KMS11, KMS18, LP1, MM1S, OPM2 and U266 were grown in Iscove modified Dulbecco's medium (IMDM). Human leukemia cell lines K562, OCI-AML2 and U937 were cultured in RPMI-1640 medium. Primary peripheral blood mononuclear cells were isolated from multiple myeloma patients by Ficoll density gradient centrifugation and bone marrow aspirates were obtained from multiple myeloma patients at the Princess Margaret Cancer Centre of the University Health Network (UHN; Toronto, ON, Canada). Primary cells were cultured in IMDM. The collection and use of human tissue for this study was approved by the UHN institutional ethics review board. All cell culture media were obtained from the Ontario Cancer Institute Tissue Culture Media Facility (Toronto, ON, Canada) and were supplemented with 10% fetal calf serum, […] (Hyclone, Logan, Utah). All cells were grown in a humidified incubator at 37° C. with 5% CO2.
Cellular viability was primarily assessed by 3-(4,5-dimethylthiazol-2-yl)-5-(3-carboxymethoxyphenyl)-2-(4-sulfophenyl)-2H-tetrazolium (MTS) assay according to the manufacturer's instructions (Promega; Madison, Wis.). Cells were first seeded at a density of 10,000 cells per well in tissue culture-treated 96-well plates. Two hours after seeding, cells were treated with compounds for 72 hours at concentrations as indicated. As a control, cells were treated with DMSO alone in every assay plate. Following treatment and the MTS assay, cell viability was independently confirmed by reading the optical density (O.D.) at 490 nm and by exclusion of trypan blue stain (Invitrogen; Burlington, ON, Canada). The viability of primary mononuclear cells was determined by staining with Annexin V.
Table 8 summarizes the data of representative compounds of Formula I for cell viability and CT-L proteasome activity with OCI-AML-2 and KMS-11 cell lines.

MM.1S tumor cells = assay: Inhibition of tumor growth in myeloma MM.1S mouse xenograft model; type: in vivo; settings: MM.1S xenograft mice
Experimental: The mice were irradiated (200 rads) using a Co60 irradiator source. After 24 hrs, each mouse was inoculated subcutaneously with 5×10^6 MM.1S tumor cells in 0.1 mL PBS for tumor development. Treatments were started when the tumor volume reached 100 mm^3. Each treatment group consisted of 10 mice. The test articles of compounds of Formula I were administrated to the tumor-bearing mice according to a specific predetermined regimen.

HOP-92 = assay: NCI screening panel, HOP-92 (Non-Small Cell Lung Cancer); type: cell-based, human
Experimental: as §1, §2, §3, §4

CCRF-CEM = assay: NCI screening panel, CCRF-CEM (Leukemia); type: cell-based, human
Experimental: as §1, §2, §3, §4

SMILES	Log10GI50 (HT29)	Log10LC50 (HT29)	Log10TGI50 (HT29)	IC50 (KMS-11)	gross adverse effects including reductions in body weight or alterations in behaviour (MM.1S tumor cells; 4 mg/kg i.v, days 1, 3, 5/wk×28 days)	gross adverse effects including reductions in body weight or alterations in behaviour (MM.1S tumor cells; 8 mg/kg i.v, days 1, 2/wk×4 wks)	Log10GI50 (HOP-92)	Log10LC50 (HOP-92)	Log10TGI50 (HOP-92)	Log10GI50 (CCRF-CEM)	Log10LC50 (CCRF-CEM)	Log10TGI50 (CCRF-CEM)
CC(C)C[C@H](NC(=O)[C@H](COC(F)F)NC(=O)CN1CCOCC1)C(=O)N[C@@H](COC(F)F)C(=O)N[C@@H](CC(C)C)C(=O)[C@@]1(C)CO1 [Example 1, (2S)—N-[(1S)-1-(difluoromethoxymethyl)-2-[[(1S)-3-methyl-1-[(2R)-2-methyloxirane-2-carbonyl]butyl]amino]-2-oxo-ethyl]-2-[[(2S)-3-(difluoromethoxy)-2-[(2-morpholinoacetyl)amino]propanoyl]amino]-4-methyl-pentanamide]	−7.77	>−4.00	−4.15	26.6 ± 8.47 nM	no gross adverse effects	no gross adverse effects	−7.74	−6.50	−7.30			
CC(C)C[C@H](NC(=O)[C@H](COC(F)F)NC(=O)CN1CCOCC1)C(=O)N[C@@H](Cc1ccccc1)C(=O)N[C@@H](CC(C)C)C(=O)[C@@]1(C)CO1 [Example 2, (2S)-N-[(1S)-1-benzyl-2-[[(1S)-3-methyl-1-[(2R)-2-methyloxirane-2-carbonyl]butyl]-amino]-2-oxo-ethyl]-2-[[(2S)-3-(difluoromethoxy)-2-[(2-morpholinoacetyl)amino]propanoyl]amino]-4-methyl-pentanamide]	<−8.00	>−4.00	−7.04	21.9 ± 0.342 nM								
CC(C)C[C@H](NC(=O)[C@H](COC(F)F)NC(=O)CN1CCOCC1)C(=O)N[C@@H](Cc1ccccc1)C(=O)N[C@@H](Cc1ccccc1)C(=O)[C@@]1(C)CO1 [Example 3, (2S)-N-[(1S)-1-benzyl-2-[[(1S)-1-benzyl-2-[(2R)-2-methyloxiran-2-yl]-2-oxo-ethyl]amino]-2-oxo-ethyl]-2-[[(2S)-3-(difluoromethoxy)-2-[(2-morpholinoacetyl)-amino]propanoyl]amino]-4-methyl-pentan-amide]	<−8.00	−4.44	−6.25	17.6 ± 0.629 nM						<−8.00	>−4.00	−4.88
CC(C)C[C@H](NC(=O)[C@H](COC(F)F)NC(=O)CN1CCOCC1)C(=O)N[C@@H](COC(F)F)C(=O)N[C@@H](Cc1ccccc1)C(=O)[C@@]1(C)CO1 [Example 4, (2S)-N-[(1S)-2-[[(1S)-1-benzyl-2-[(2R)-2-methyloxiran-2-yl]-2-oxo-ethyl]amino]-1-(difluoromethoxymethyl)-2-oxo-ethyl]-2-[[(2S)-3-(difluoromethoxy)-2-[(2-mor-pholinoacetyl)amino]propanoyl]amino]-4 methyl-pentanamide]	−7.50	>−4.00	−5.63	33.9 ± 2.11 nM			−7.59	−6.24	−7.15	<−8.00	>−4.00	>−4.00
CC(C)C[C@H](NC(=O)[C@H](COC(F)F)NC(=O)[C@H](COC(F)F)NC(=O)[C@H](CCc1ccccc1)NC(=O)CN1CCOCC1)C(=O)[C@@]1(C)CO1 [Example 7, (2S)-N-[(1S)-1-(difluoromethoxymethyl)-2-[[(1S)-1-(difluoromethoxymethyl)-2-[[(1S)-3-methyl-1-[(2R)-2-methyloxirane-2-carbo-nyl]butyl]amino]-2-oxo-ethyl]amino]-2-oxo-ethyl]-2-[(2-morpholinoacetyl)amino]-4-phenyl-butanamide]	<−8.00	>−4.00	−4.93	19.8 ± 0.532 nM			−7.71	−6.54	−7.28	<−8.00	>−4.00	>−4.00
CC(C)C[C@H](NC(=O)[C@H](Cc1ccccc1)NC(=O)[C@H](COC(F)F)NC(=O)[C@H](COC(F)F)NC(=O)CN1CCOCC1)C(=O)[C@@]1(C)CO1 [Example 11, (2S)-2-[[(2S)-3-(difluoromethoxy)-2-[[(2S)-3-(difluoromethoxy)-2-[(2-morpholinoacetyl)-amino]propanoyl]amino]propanoyl]amino]-N-[(1S)-3-methyl-1-[(2R)-2-methyloxirane-2-carbonyl]butyl]-3-phenyl-propanamide]	−7.70	>−4.00	−5.91	24.3 ± 0.568 nM			−7.62	−6.26	−7.15	<−8.00	>−4.00	−4.57
CC(C)C[C@H](NC(=O)[C@H](COC(F)F)NC(=O)[C@H](COC(F)F)NC(=O)[C@H](COC(F)F)NC(=O)CN1CCOCC1)C(=O)[C@@]1(C)CO1 [Example 17, (2S)-3-(difluoromethoxy)-N-[(1S)-1-(difluoromethoxymethyl)-2-[[(1S)-1-(difluoro-methoxymethyl)-2-[[(1S)-3-methyl-1-[(2R)-2-methyloxirane-2-carbonyl]butyl]amino]-2-oxo-ethyl]amino]-2-oxo-ethyl]-2-[(2-mor-pholinoacetyl)amino]-propanamide]	−7.30	>−4.00	−6.28	166 ± 13.4 nM			−7.56	−6.02	−7.01	−7.39	>−4.00	>−4.00
